From patent US20110236397A1, “LIMITED PROTEOLYSIS OF CD2AP AND PROGRESSION OF RENAL DISEASE” (University of Miami, priority 2008, published 2011)
Residues, ends and D or L forms follow the SMILES beside them. *: point of attachment. Cbz = O=C(OCc1ccccc1)*; CH2F = FC*

How the values were obtained:
podocytes = conditions: in vivo; cited from earlier work
[1] = system: rat glomerulonephritis model; conditions: cited from earlier work
cathepsin B = cathepsin B (Homo sapiens, UniProt P07858); conditions: cited from earlier work
cathepsin L [2] = assay: Cellular CatL cleavage assay: CD2AP-FLAG HEK293 cells co-transfected with cathepsin L constructs; assay type: cell-based; conditions: for cleavage of CD2AP into p32 by WT cathepsin L: WT cathepsin L (pre-pro and short form), co-incubation with inhibitor; for cleavage of CD2AP into p32 by cytosolic (short, CatL M1) cathepsin L: cytosolic cathepsin L alone, inhibitor added
Description: FIG. 2A is a scan of a photograph showing a silver stained gel of FLAG-CD2AP after cleavage with CatL at various pH. FIG. 2B is a scan of a photograph showing an immunoblot of cleaved CD2AP fragments that are tagged with a N-terminal GFP. GFP-CD2AP is stable in the absence of CatL enzyme. Cleavage of CD2AP at pH 4.5 and 5.5 leads to complete digestion of the protein. At pH 7.0, CD2AP is cleaved into a stable 55 kD fragment (▪) as detected with an anti-GFP antibody. The same fragment is detected with the CD2AP antiserum which is raised against the SH3 domains of CD2AP (anti-N-CD2AP). The CD2AP antiserum also detects a weak band corresponding to a 44 kD fragment (▴, detected by the affinity of the antibody to the C-terminal SH3, anti-C-CD2AP). FIG. 2C is a schematic representation showing the match of cleavage fragments with predicted CatL cleavage site QPLGS. FIG. 2D is a blot showing that CatL cleaves CD2AP-FLAG yielding a 44 kD (▴) and a 32 kD ([…]) fragment. FIG. 2E is a schematic representation showing that both fragments have corresponding predictions in the amino acid sequence of CD2AP (QPLGS and LSAAE). FIG. 2F is a blot showing results from a cellular CatL cleavage assay: Wild type (WT) CatL (pre-pro CatL and short form) cleaves CD2AP in HEK293 cells. […] Short CatL (CatL M1) is sufficient to cleave CD2AP yielding a 32 kD fragment ([…]). This cleavage is abrogated by a specific CatL inhibitor. FIG. 2G is a blot showing that deletion of the CatL cleavage site LSAAE protects CD2AP from limited proteolysis into the 32 kD fragment ([…]).
Cell culture and transient transfection. Mouse podocytes were cultured as described previously (Mundel, P. et al. Exp. Cell Res. 236, 248-258 (1997)). HEK293 cells were maintained and transfected as previously reported (Reiser, J. et al. Nat. Genet. 37, 739-744 (2005)).
Next, it was investigated whether cytosolic cathepsin L in cells is sufficient to process CD2AP. CD2AP-FLAG expressing HEK293 cells were co-transfected with WT cathepsin L […] which generates cytosolic and lysosomal cathepsin L protein and a cathepsin L construct that contains a deletion of the first AUG site and thus encodes selectively for the cytosolic form of cathepsin L. The experiments were performed in the presence or absence of a specific cathepsin L inhibitor (FIG. 2F). WT cathepsin L led to cleavage of CD2AP yielding p32. […] More importantly, transfection of cytosolic cathepsin L alone was sufficient to cleave CD2AP resulting in the production of p32 (FIG. 2F). […] The stable p32 fragment was identified in the cleavage assays at neutral pH (FIG. 2A). In addition, this fragment was generated in HEK 293 cells using cytosolic cathepsin L. Therefore, this fragment was regarded as an end-product generated through cytosolic cathepsin L cleavage. […]

cathepsin L [3] = assay: Cathepsin L activity assay in glomerular extracts (fluorogenic substrate CV-(FR)2); assay type: biochemical, mouse; conditions: LPS treated mice, co-incubation
Procedure: Isolation and processing of glomeruli. Glomeruli were isolated from kidneys of 8-12 weeks old LPS- and PBS-treated (control) mice using a sequential sieve technique with mesh sizes of 180, 100, and 71 μm. The fraction collected from the 71-μm sieve was maintained for soup/pellet fractionation. Isolated glomeruli were homogenized in buffer containing 20 mM HEPES pH 7.5, 100 mM NaCl, 1 mM MgCl2, 1 mM PMSF, protease inhibitors (Roche), calpain inhibitor (Calbiochem), and E-64d (Calbiochem) using Dounce homogenizer. Subsequently, cytosol was centrifuged for 10 min at 4,600 g. Proteins were solubilized by 1% Triton X-100, 1 hour at 4° C., before it was spun at 70,000 g for 1 hour.
Cathepsin L activity assay. Subcellular sites of cathepsin L and cathepsin B activity in glomerular extracts were visualized by a fluorogenic substrate, CV—(FR)2, which emits light upon cleavage by cathepsin L or cathepsin B (Biomol).
To test the significance of this prediction, glomeruli were isolated from control mice and animals that were injected with low-dose lipopolysaccharide (LPS), a treatment causing high levels of cytosolic cathepsin L in podocytes. The tissue samples were further processed to obtain cytosolic and membrane-bound glomerular extracts (FIG. 1A). […]

[4] = listed as specific CatL inhibitor

CC(C)[C@@H]1NC(=O)[C@@H](Cc2ccccc2)NC(=O)[C@H](CC(=O)O)NC(=O)CNC(=O)[C@H](CCCN=C(N)N)NC1=O [cycloRGDfV]
protection against proteinuria (podocytes): safeguard against proteinuria

CC(C)C[C@H](NC(=O)[C@H]1O[C@@H]1C(=O)O)C(=O)NCCCCN=C(N)N [E64]
experimental proteinuria [1]: can reduce experimental proteinuria
protection against proteinuria (podocytes): safeguard against proteinuria

O=C(NC(Cc1ccccc1)C(=O)NC(Cc1ccccc1)C(=O)CF)OCc1ccccc1 (stereo not drawn) [Z-FF-FMK] (Cbz-Phe-Phe-CH2F; configuration not given here)
inhibition of cathepsin B (cathepsin B): does not inhibit cathepsin B
cleavage of CD2AP into p32 by WT cathepsin L (cathepsin L [2]; [4]): can be prevented
cleavage of CD2AP into p32 by WT cathepsin L (cathepsin L [2]; listed as specific cathepsin L inhibitor): could be prevented
cleavage of CD2AP into p32 by cytosolic (short, CatL M1) cathepsin L (cathepsin L [2]; listed as cathepsin L inhibitor): could be blocked
cleavage of CD2AP into p32 by cytosolic (short, CatL M1) cathepsin L (cathepsin L [2]; [4]): abrogated
inhibition of cathepsin L activity in cytosolic extract of glomeruli (cathepsin L [3]): could be inhibited

COC(=O)[C@@H]1CC2=CC(=O)CC[C@]2(C)[C@@]23O[C@@H]2C[C@@]2(C)[C@@H](CC[C@@]24CCC(=O)O4)[C@H]13 [Epleronone]
protection against proteinuria (podocytes): safeguard against proteinuria

CCN(CC)CCCC(C)Nc1nc(C)cc(Nc2ccc3nc(C)cc(N)c3c2)n1 (centres unmarked) [NSC23766]
protection against proteinuria (podocytes): safeguard against proteinuria
